Measured values: patent US20040157240A1, “Diagnostic assay and related products” (The Brigham & Women's Hospital, Inc., priority 2002, published 2004)

Columns and labels:
[1] = CAMP (Childhood Asthma Management Program): clinical trial of inhaled budesonide vs. nedocromil vs. placebo, change in FEV1; format: in vivo, human
Source text: The Childhood Asthma Management Program (CAMP) was a randomized, double-masked, long term clinical trial testing the safety and efficacy of inhaled budesonide vs. nedocromil vs. placebo (27). The mean duration of follow-up was 4 years (28). 311 children (males and females for a variety of race and age groups) were randomized to the steroid group, with a mean improvement of 6.8% in their FEV1 at one year. Of these, 65% were Caucasian. These formed the basis for our replication sample.
CAMP is a multicenter, randomized, double-blinded clinical trial testing the safety and efficacy of inhaled budesonide vs. nedocromil vs. placebo over a mean of 4.3 years. Trial design and methodology have been published (27, 28). The replication sample subjects were the Caucasian CAMP children randomized to the steroid group, evaluated at their 2 month follow-up visit.
(§1) The primary outcome measure of the association analyses was percent change in FEV1 over time in response to inhaled steroids, defined as the FEV1 difference from baseline to eight weeks for the Adult Study and CAMP, and to six weeks in ACRN, divided by the baseline value.

[2] = Adult Study (Forest study): 8-week clinical trial of inhaled flunisolide vs. standard inhaled corticosteroid therapy, change in FEV1; format: in vivo, human; conditions: on inhaled corticosteroids, evaluated at 8 weeks; mean ± standard deviation; N 470
Source text: The Forest study (also known as the Adult Study) was an 8 week clinical trial used to compare the effect of once daily high dose inhaled flunisolide vs. “standard inhaled corticosteroid therapy” (performed by Forest Pharmaceuticals). […] Of these participants, 7% were African American, 3% were Hispanic and 2% were other. As 88% of these participants were Caucasian, analyses focus on this group. Additionally, females accounted for 58.5% of the participants.
The Adult Study was a multicenter 8-week randomized clinical trial comparing the effect of once-daily high-dose inhaled flunisolide vs. standard inhaled corticosteroid therapy. Inclusion criteria were a history of asthma, >12% improvement in FEV1 with albuterol and using inhaled steroids at randomization. Exclusion criteria were non-asthma pulmonary disease, smoking (≧10 pack-years) and recent asthma exacerbations requiring systemic steroids. Subjects were phoned weekly and had spirometry at 4 and 8 weeks.

[3] = ACRN (SOCS/SLIC) 6-week run-in period on inhaled triamcinolone, change in FEV1; format: in vivo, human; conditions: on inhaled corticosteroids, evaluated at 6 weeks; mean ± standard deviation; N 336
Source text: Two completed trials conducted by the ACRN (Asthma Clinical Research Network), the salmeterol or corticosteroids (SOCS) (54) and salmeterol±inhaled corticosteroids (SLIC)
Details regarding the entry criteria, run-in period and randomization have been published with the primary trial results (54, 55). Of the 339 subjects eligible for randomization, 336 had DNA available; 66.7% of these were Caucasian, forming the basis of the second replication sample.
as §1

[4] = test system: β2-adrenergic receptor gene; conditions: cited from earlier work

**Q.** With CCCC1O[C@@H]2C[C@H]3[C@@H]4CCC5=CC(=O)C=C[C@]5(C)[C@H]4[C@@H](O)C[C@]3(C)[C@]2(C(=O)CO)O1 (stereo partly drawn) [Budesonide] as the compound, how does the “mean improvement in FEV1” value ([1]; at one year, 311 children randomized to the steroid group) read?
**A.** 6.8%

**Q.** And the “Mean Change in FEV1” value ([1]; on inhaled corticosteroids, evaluated at 8 weeks, mean ± standard deviation, N 311)?
**A.** 8.3 ± 14.1%

**Q.** Which “Mean Change in FEV1” value [2] does the source give for CC1(C)O[C@@H]2C[C@H]3[C@@H]4C[C@H](F)C5=CC(=O)C=C[C@]5(C)[C@H]4[C@@H](O)C[C@]3(C)[C@]2(C(=O)CO)O1 [Flunisolide] here?
**A.** 7.0 ± 19.3%

**Q.** Which “Mean Change in FEV1” value [3] does the source give for C[C@]12C=CC(=O)C=C1CC[C@H]1[C@@H]3C[C@@H](O)[C@](O)(C(=O)CO)[C@@]3(C)C[C@H](O)[C@@]12F [Triamcinolone] here?
**A.** 6.7 ± 19.7%

**Q.** Which acute bronchodilator response ([4]; Arg/Arg children than Gly/Gly children) does the source give for CC(C)(C)NCC(O)c1ccc(O)c(CO)c1 (stereo not drawn) [albuterol] here?
**A.** more likely

**Q.** And the “peak expiratory flow rates” value ([4]; regular utilization, Arg/Arg at position 16, compared to Arg/Arg receiving prn and Gly/Gly)?
**A.** significantly decrease
